Experiments:
A549 cells = experiment: Cell viability by MTT method in A549 cells; format: cell-based; set-up: concentration or dose not given beside the values; conditions: 72 hours treatment
AIMP2-DX2 = target: T1, AIMP2-DX2 (Homo sapiens, UniProt Q13155); experiment: DX2-nanoluciferase assay (DX2 expression change) in transfected A549 cells; conditions: for inhibition at 40 µM / inhibition at 10 µM: A549, 4 h; for inhibition at 40 µM: read-out: DX-Nanoluciferase activity (40 μM), 40 μM, 4 hours treatment, A549 cells transfected with nanoluciferase-DX2; for inhibition at 10 µM: read-out: DX-Nanoluciferase activity (10 μM), 10 μM, 4 hours treatment, A549 cells transfected with nanoluciferase-DX2
T1 sequence (Q13155 1-251 isoform Q13155-2): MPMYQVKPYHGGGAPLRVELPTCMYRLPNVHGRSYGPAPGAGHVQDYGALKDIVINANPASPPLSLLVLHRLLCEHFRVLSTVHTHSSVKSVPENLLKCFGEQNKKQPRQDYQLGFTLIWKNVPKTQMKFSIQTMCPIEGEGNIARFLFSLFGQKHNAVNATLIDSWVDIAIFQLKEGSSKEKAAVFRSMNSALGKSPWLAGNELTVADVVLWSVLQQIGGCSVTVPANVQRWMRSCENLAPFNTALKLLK
Experimental: After cloning DX2 into a plasmid expressing nanoluciferase, the plasmid was transfected into A549 cells. Transfected cells were seeded 1×10^4 per well in a 96-well plate and stabilized for 12 hours. […] Cell viability was measured by the MTT method after 72 hours of treatment with each concentration of the compound in A549 cells.

[1] = inhibitory effect on AIMP2-DX2 expression

Compound	inhibition at 40 µM (AIMP2-DX2; [1]) [%]	inhibition at 10 µM (AIMP2-DX2) [%]	DX-Nanoluciferase activity (40 μM) (AIMP2-DX2; 40 μM, 4 hours treatment, A549 cells transfected with nanoluciferase-DX2, inhibitory effect on AIMP2-DX2 expression)	Cell Viability (% inhibition) (A549) (A549 cells)
Cc1ccc(S(=O)(=O)N[C@@H](CC(C)C)C(=O)NCCN2CCOCC2)cc1 [Compound 18, (S)-4-methyl-2-(4-methylphenylsulfonamido)-N-(2-morpholinoethyl)pentanamide]	14.8			8.7%
Cc1ccc(S(=O)(=O)N[C@@H](Cc2c[nH]c3ccccc23)C(=O)Nc2ccc(N3CCOCC3)c(F)c2)cc1 [Compound 77, (S)—N-(3-fluoro-4-morpholinophenyl)-3-(1H-indol-3-yl)-2-(4-methylphenylsulfonamido)propanamide]	23.9 ± 7.01			80.59 ± 1.49%
Cc1ccc(C(=O)N[C@@H](Cc2c[nH]c3ccccc23)C(=O)OCc2ccccc2)cc1 [Compound 128, (S)-Benzyl 3-(1H-indol-3-yl)-2-(4-methylbenzamido)propanoate]	36.8 ± 8.13			63.08 ± 7.72%
Cc1ccc(S(=O)(=O)N[C@@H](Cc2c[nH]c3ccccc23)C(=O)Nc2ccc(N3CCOCC3)cc2)c(C)c1 [Compound 72, (S)-2-(2,4-Dimethylphenylsulfonamido)-3-(1H-indol-3-yl)-N-(4-morpholinophenyl)propanamide]	21.5 ± 7.62			73.73 ± 0.78%
Cc1ccc(S(=O)(=O)N[C@@H](Cc2c[nH]c3ccccc23)C(=O)Nc2nc(C)cs2)cc1 [Compound 111, (S)-3-(1H-indol-3-yl)-2-(4-methylphenylsulfonamido)-N-(4-methylthiazol-2-yl)propanamide]			25.61 ± 22.32	11.65 ± 6.05%
CCOC(=O)C(Cc1c[nH]c2ccccc12)NC(=O)[C@H](Cc1c[nH]c2ccccc12)NS(=O)(=O)c1ccc(C)cc1 (stereo partly drawn) [Compound 224, Ethyl 2-((S)-3-(1H-indol-3-yl)-2-(4-methylphenylsulfonamido)propanamido)-3-(1H-indol-3-yl)propanoate]		42.7 ± 8.97		93.83 ± 0.34%
Cc1ccc(S(=O)(=O)NCC(=O)N2CCOCC2)cc1 [Compound 155, 4-Methyl-N-(2-morpholino-2-oxoethyl)benzenesulfonamide]	31.3 ± 4.4			17.30 ± 0.81%
CCCCCCCCCC(=O)NNC(=O)[C@H](Cc1c[nH]c2ccccc12)NS(=O)(=O)c1ccc(Br)cc1 [Compound 195, (S)-4-Bromo-N-(1-(2-decanoylhydrazinyl)-3-(1H-indol-3-yl)-1-oxopropan-2-yl)benzenesulfonamide]	45.4 ± 5.61	45.4 ± 5.61		
CC(C)C[C@H](NC(=O)Nc1ccccc1)C(=O)OCc1ccccc1 [Compound 154, (S)-Benzyl 4-methyl-2-(3-phenylureido)pentanoate]	40.5 ± 7.7			
O=C(Nc1nc(-c2ccc([N+](=O)[O-])cc2)cs1)[C@H](Cc1c[nH]c2ccccc12)NS(=O)(=O)c1ccc(Br)cc1 [Compound 190, (S)-2-(4-Bromophenylsulfonamido)-3-(1H-indol-3-yl)-N-(4-(4-nitrophenyl)thiazol-2-yl)propanamide]		29.6 ± 14		
Cc1ccc(S(=O)(=O)N[C@@H](CC(=O)O)C(=O)Nc2ccc(N3CCOCC3)cc2)cc1 [Compound 145, (S)-3-(4-Methylphenylsulfonamido)-4-(4-morpholinophenylamino)-4-oxobutanoic acid]	-11.1 ± 19.2			
CC(C)C[C@H](NS(=O)(=O)c1ccccc1)C(=O)Nc1ccc(N2CCOCC2)cc1 [Compound 27, (S)-4-methyl-N-(4-morpholinophenyl)-2-(phenylsulfonamido)pentanamide]				13.51 ± 9.40%
COc1ccc(CNC(=O)CC[C@H](NS(=O)(=O)c2ccc(C)cc2)C(=O)Nc2ccc(N3CCOCC3)cc2)cc1 [Compound 171, (S)—N^5-(4-Methoxybenzyl)-2-(4-methylphenylsulfonamido)-N^1-(4-morpholinophenyl)pentanediamide]				40.19 ± 4.29%
Cc1ccc(S(=O)(=O)N[C@@H](CCC(=O)Nc2ccc(F)cc2)C(=O)Nc2ccc(N3CCOCC3)cc2)cc1 [Compound 174, (S)—N^5-(4-fluorophenyl)-2-(4-methylphenylsulfonamido)-N^1-(4-morpholinophenyl)pentanediamide]				10.8 ± 2.26%
Cc1ccc(S(=O)(=O)N[C@@H](CO)C(=O)Nc2ccc(N3CCOCC3)cc2)cc1 [Compound 130, (S)-3-Hydroxy-2-(4-methylphenylsulfonamido)-N-(4-morpholinophenyl)propanamide]				16.62 ± 10.08%
Cc1ccc(S(=O)(=O)N[C@H](Cn2c(=O)c(=O)[nH]c3ccccc32)C(=O)Nc2ccc(N3CCOCC3)cc2)cc1 [Compound 139, (R)-3-(2,3-dioxo-3,4-dihydroquinoxalin-1(2H)-yl)-2-(4-methylphenylsulfonamido)-N-(4-morpholinophenyl)propanamide]				9.99 ± 0.24%
COc1ccc(-c2csc(NC(=O)[C@H](Cc3c[nH]c4ccccc34)NS(=O)(=O)c3ccc(Cl)cc3)n2)cc1 [Compound 211, (S)-2-(4-Chlorophenylsulfonamido)-3-(1H-indol-3-yl)-N-(4-(4-methoxyphenyl)thiazol-2-yl)propanamide]				83.3 ± 1.04%
Cc1ccc(S(=O)(=O)N[C@@H](CC(C)C)C(=O)Nc2ccc(N3CCCCC3)cc2)cc1 [Compound 7, (S)-4-methyl-2-(4-methylphenylsulfonamido)-N-(4-(piperidin-1-yl)phenyl)pentanamide]				23.48%

More lines, main results first:

inhibition at 40 µM (AIMP2-DX2; [1]) [%]	inhibition at 10 µM (AIMP2-DX2) [%]	DX-Nanoluciferase activity (40 μM) (AIMP2-DX2; 40 μM, 4 hours treatment, A549 cells transfected with nanoluciferase-DX2, inhibitory effect on AIMP2-DX2 expression)	Compound	Cell Viability (% inhibition) (A549) (A549 cells)
45 ± 7.8			Cc1ccc(S(=O)(=O)N[C@@H](CC(=O)OC(C)(C)C)C(=O)N2CCOCC2)cc1 [Compound 37, (S)-tert-butyl 3-(4-methylphenylsulfonamido)-4-morpholino-4-oxobutanoate]	20.33%
38.6 ± 11.3			COc1ccc(N2CCN(C(=O)[C@H](Cc3c[nH]c4ccccc34)NS(=O)(=O)c3ccc(Br)cc3)CC2)cc1 [Compound 202, (S)—N-(3-(1H-indol-3-yl)-1-(4-(4-methoxyphenyl)piperazin-1-yl)-1-oxopropan-2-yl)-4-bromobenzenesulfonamide]	78.44 ± 2.44%
	15.9 ± 19.4		Cc1ccc(S(=O)(=O)N[C@@H](Cc2c[nH]c3ccccc23)C(=O)NCCc2ccc(C(=O)O)cc2)cc1 [Compound 220, (S)-4-(2-(3-(1H-indol-3-yl)-2-(4-methylphenylsulfonamido)propanamido)ethyl)benzoic acid]	−11.09 ± 8.4%
65.9 ± 4			Cc1ccc(C(=O)N[C@@H](CC(C)C)C(=O)OCc2ccccc2)cc1 [Compound 50, (S)-benzyl 4-methyl-2-(4-methylbenzamido)pentanoate]	75.41 ± 3.28%
	-7.04 ± 4.87		O=C(Nc1ccc(N2CCOCC2)cc1)[C@H](Cc1c[nH]c2ccccc12)NS(=O)(=O)c1ccc(O)cc1 [Compound 158, (S)-2-(4-Hydroxyphenylsulfonamido)-3-(1H-indol-3-yl)-N-(4-morpholinophenyl)propanamide]	24.87 ± ? .01%
30.6 ± 15.3			O=C(Nc1ccc(N2CCOCC2)cc1)[C@H](Cc1c[nH]c2ccccc12)NS(=O)(=O)c1ccc(Br)cc1 [Compound 79, (S)-2-(4-Bromophenylsulfonamido)-3-(1H-indol-3-yl)-N-(4-morpholinophenyl)propanamide]	78.31 ± 1.91%
44.5 ± 14.2			O=C(Nc1ccc(N2CCOCC2)cc1)[C@H](Cc1c[nH]c2ccccc12)NS(=O)(=O)c1ccc(F)cc1 [Compound 67, (S)-2-(4-Fluorophenylsulfonamido)-3-(1H-indol-3-yl)-N-(4-morpholinophenyl)propanamide]	69.20 ± 2.10%
	25.2 ± 9.86		COc1cc(N2CCN(C(C)=O)CC2)ccc1NC(=O)[C@H](Cc1c[nH]c2ccccc12)NS(=O)(=O)c1ccc(C)cc1 [Compound 161, (S)—N-(4-(4-Acetylpiperazin-1-yl)-2-methoxyphenyl)-3-(1H-indol-3-yl)-2-(4-methylphenylsulfonamido)propanamide]	
-4.97 ± 1.37			O=C(NCc1ccco1)[C@H](Cc1c[nH]c2ccccc12)NS(=O)(=O)c1ccc(Br)cc1 [Compound 179, (S)-2-(4-Bromophenylsulfonamido)-N-(furan-2-ylmethyl)-3-(1H-indol-3-yl)propanamide]	
1.52 ± 5.08			Cc1ccc(S(=O)(=O)N[C@@H](Cc2c[nH]c3ccccc23)C(=O)NCc2ccco2)cc1 [Compound 178, (S)—N-(furan-2-ylmethyl)-3-(1H-indol-3-yl)-2-(4-methylphenylsulfonamido)propanamide]	
26.9 ± 6.7			CC(=O)Nc1cccc(S(=O)(=O)N[C@@H](CC(C)C)C(=O)N2CCOCC2)c1 [Compound 153, (S)—N-(3-(N-(4-methyl-1-morpholino-1-oxopentan-2-yl)sulfamoyl)phenyl)acetamide]	
-17.7 ± 16.6			Cc1ccc(S(=O)(=O)N[C@@H](Cc2c[nH]c3ccccc23)C(=O)NCc2cccs2)cc1 [Compound 150, (S)-3-(1H-indol-3-yl)-2-(4-methylphenylsulfonamido)-N-(thiophen-2-ylmethyl)propanamide]	

From patent publication US20220204497A1, “NOVEL COMPOUND HAVING ANTICANCER ACTIVITY, AND METHOD FOR PRODUCING SAME” (MEDICINAL BIOCONVERGENCE RESEARCH CENTER, priority 2019, published 2022)
